One block for each compound: values may come before it.
Legend:
[1] = system: A549; test: Effective concentration for inhibition of interleukin-6 in human A549 lung carcinoma cell line using 62% radiolabeled Dexamethasone; format: functional, cell-based
[2] = species on record: Mus musculus; test: Effective concentration required for inhibition of interleukin-6 in mouse thioglycolate-elicited peritoneal exudate cell line using 69% radiolabeled Dexamethasone; format: functional
[3] = target: T1, Glucocorticoid receptor (Homo sapiens, UniProt P04150); test: Inhibition of human glucocorticoid receptor alpha isoform
T1 sequence (P04150 whole entry): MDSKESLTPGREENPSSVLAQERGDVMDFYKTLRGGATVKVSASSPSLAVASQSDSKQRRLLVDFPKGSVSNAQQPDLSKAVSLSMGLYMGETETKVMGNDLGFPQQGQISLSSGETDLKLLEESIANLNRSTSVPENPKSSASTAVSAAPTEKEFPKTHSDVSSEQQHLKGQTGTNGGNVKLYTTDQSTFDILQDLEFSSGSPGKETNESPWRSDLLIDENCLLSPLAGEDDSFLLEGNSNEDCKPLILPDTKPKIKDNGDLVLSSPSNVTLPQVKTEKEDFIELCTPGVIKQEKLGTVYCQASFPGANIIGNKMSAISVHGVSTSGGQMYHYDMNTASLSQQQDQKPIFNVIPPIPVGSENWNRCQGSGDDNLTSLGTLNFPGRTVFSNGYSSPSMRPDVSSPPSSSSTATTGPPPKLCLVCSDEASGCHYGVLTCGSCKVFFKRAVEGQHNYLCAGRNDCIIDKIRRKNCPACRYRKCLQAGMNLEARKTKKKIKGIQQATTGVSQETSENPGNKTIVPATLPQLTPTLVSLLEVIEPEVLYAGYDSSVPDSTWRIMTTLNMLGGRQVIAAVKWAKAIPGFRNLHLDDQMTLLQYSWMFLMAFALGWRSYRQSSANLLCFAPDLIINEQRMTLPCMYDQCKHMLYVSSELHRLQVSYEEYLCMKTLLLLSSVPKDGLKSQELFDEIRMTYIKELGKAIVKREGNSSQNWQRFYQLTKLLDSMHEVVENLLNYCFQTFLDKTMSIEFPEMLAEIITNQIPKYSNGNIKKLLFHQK

[4] = system: A549; test: Effective concentration for inhibition of interleukin-6 in human A549 lung carcinoma cell line using 35% radiolabeled Dexamethasone; format: functional, cell-based
[5] = species on record: Mus musculus; test: Effective concentration required for inhibition of interleukin-6 in mouse thioglycolate-elicited peritoneal exudate cell line using 52% radiolabeled Dexamethasone; format: functional
[6] = system: A549; test: Effective concentration for inhibition of interleukin-6 in human A549 lung carcinoma cell line using […]% radiolabeled Dexamethasone; format: functional, cell-based
[7] = system: A549; test: Effective concentration for inhibition of interleukin-6 in human A549 lung carcinoma cell line using 44% radiolabeled Dexamethasone; format: functional, cell-based
[8] = target: T2, Estrogen receptor (Homo sapiens, UniProt P03372); test: Binding affinity for human estrogen receptor alpha
T2 sequence (P03372 whole entry): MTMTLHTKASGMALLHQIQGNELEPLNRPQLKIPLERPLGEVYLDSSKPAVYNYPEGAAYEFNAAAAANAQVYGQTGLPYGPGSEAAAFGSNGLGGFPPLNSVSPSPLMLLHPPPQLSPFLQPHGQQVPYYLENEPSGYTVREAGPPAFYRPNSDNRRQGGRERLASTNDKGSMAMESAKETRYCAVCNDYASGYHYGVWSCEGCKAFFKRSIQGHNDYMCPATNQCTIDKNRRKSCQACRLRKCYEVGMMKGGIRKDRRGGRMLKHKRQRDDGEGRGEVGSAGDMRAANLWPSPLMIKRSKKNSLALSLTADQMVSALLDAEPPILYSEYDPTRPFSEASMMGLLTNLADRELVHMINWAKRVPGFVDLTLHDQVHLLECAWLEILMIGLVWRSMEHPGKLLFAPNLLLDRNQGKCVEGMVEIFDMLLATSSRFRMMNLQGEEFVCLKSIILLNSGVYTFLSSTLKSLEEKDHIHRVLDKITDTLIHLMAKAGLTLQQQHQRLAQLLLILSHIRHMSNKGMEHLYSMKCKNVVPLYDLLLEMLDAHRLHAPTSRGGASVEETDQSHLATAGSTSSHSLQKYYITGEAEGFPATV

[9] = species on record: Mus musculus; test: Effective concentration required for inhibition of interleukin-6 in mouse thioglycolate-elicited peritoneal exudate cell line using 56% radiolabeled Dexamethasone; format: functional
[10] = system: Mus musculus; test: Inhibition of LPS induced TNF-alpha secretion in mouse at an oral dose of 30 mg/kg relative to that produced by Dexamethasone at a dose of 0.3 mg/kg; format: functional
[11] = target: T1, Glucocorticoid receptor; test: Binding affinity for human glucocorticoid receptor
[12] = Half life time in mouse at 2 mg/kg i.v. administration; format: ADME, organism-based; set-up: dose 2 mg/kg, route intravenous; settings: in vivo, iv
[13] = target: Estrogen receptor beta (Homo sapiens, UniProt Q92731); test: Binding affinity for human estrogen receptor beta
[14] = target: T3, Progesterone receptor (Homo sapiens, UniProt P06401); test: Binding affinity for human progesterone receptor
T3 sequence (P06401 whole entry): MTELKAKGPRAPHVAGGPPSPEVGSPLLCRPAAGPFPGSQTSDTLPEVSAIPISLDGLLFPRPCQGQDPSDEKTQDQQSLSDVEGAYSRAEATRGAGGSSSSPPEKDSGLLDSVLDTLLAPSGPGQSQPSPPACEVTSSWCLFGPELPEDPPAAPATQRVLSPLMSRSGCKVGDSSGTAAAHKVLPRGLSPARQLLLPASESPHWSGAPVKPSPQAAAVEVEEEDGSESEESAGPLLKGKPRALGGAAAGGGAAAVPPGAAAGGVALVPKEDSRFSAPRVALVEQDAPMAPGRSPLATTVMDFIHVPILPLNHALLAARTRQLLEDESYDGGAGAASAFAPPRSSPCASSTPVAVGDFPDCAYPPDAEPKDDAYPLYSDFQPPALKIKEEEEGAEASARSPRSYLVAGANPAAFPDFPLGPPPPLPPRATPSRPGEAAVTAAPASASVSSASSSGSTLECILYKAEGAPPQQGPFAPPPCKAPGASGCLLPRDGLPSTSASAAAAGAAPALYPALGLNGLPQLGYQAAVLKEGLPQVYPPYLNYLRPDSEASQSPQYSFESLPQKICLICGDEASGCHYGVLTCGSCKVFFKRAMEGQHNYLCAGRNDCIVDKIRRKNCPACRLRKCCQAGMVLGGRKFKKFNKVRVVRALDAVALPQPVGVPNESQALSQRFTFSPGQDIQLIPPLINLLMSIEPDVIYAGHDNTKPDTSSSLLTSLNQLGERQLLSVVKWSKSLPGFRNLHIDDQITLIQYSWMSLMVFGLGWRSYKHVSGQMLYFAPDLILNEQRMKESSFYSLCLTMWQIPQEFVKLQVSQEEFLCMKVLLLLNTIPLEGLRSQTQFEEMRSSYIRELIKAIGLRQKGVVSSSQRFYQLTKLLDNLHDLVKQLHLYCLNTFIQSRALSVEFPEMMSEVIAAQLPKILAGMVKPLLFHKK

[15] = Volume of distribution in mouse at 2 mg/kg i.v. administration; format: ADME, organism-based; set-up: dose 2 mg/kg, route intravenous; settings: in vivo, iv, read-out: Volume of distribution
[16] = species on record: Mus musculus; test: Effective concentration required for interleukin-6 transrepression in peritoneal exudate cells of C57B1/6 mouse using 56% Dexamethasone; format: functional, cell-based
[17] = Bioavailability in mouse (dose 10 mg/kg p.o.); format: ADME, organism-based; settings: in vivo, po
[18] = target: T4, Mineralocorticoid receptor (Rattus norvegicus, UniProt P22199); test: Binding affinity for rat mineralocorticoid receptor
T4 sequence (P22199 whole entry): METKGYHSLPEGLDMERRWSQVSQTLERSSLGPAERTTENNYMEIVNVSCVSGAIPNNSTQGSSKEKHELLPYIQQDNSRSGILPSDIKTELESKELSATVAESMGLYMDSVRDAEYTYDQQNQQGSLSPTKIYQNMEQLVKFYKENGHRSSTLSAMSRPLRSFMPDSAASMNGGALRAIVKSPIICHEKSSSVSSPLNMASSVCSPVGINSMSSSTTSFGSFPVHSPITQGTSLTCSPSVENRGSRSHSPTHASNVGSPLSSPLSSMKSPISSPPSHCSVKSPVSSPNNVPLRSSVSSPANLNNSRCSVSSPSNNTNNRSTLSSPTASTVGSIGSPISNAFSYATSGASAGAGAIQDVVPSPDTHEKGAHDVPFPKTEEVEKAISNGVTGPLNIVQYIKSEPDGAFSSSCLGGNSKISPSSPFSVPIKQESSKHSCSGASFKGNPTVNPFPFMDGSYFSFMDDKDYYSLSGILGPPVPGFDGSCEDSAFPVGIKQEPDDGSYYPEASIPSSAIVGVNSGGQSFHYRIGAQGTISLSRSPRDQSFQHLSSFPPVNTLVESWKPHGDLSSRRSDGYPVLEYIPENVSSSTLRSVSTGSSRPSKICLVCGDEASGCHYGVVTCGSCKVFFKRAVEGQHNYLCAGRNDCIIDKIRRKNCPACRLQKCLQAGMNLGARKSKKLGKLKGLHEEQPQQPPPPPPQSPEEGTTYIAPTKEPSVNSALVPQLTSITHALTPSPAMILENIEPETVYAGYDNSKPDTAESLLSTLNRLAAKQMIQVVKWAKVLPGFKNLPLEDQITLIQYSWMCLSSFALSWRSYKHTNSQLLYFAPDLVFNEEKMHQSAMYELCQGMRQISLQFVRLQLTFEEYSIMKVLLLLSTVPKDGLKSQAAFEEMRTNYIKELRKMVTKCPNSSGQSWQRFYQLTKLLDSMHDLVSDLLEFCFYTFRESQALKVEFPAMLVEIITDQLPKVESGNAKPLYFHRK

[19] = system: A549; test: Effective concentration for inhibition of interleukin-6 in human A549 lung carcinoma cell line using 58% radiolabeled Dexamethasone; format: functional, cell-based
[20] = Clearance data in mouse at 2 mg/kg i.v. administration; format: ADME, organism-based; set-up: dose 2 mg/kg, route intravenous; settings: in vivo, iv
[21] = system: A549; test: Effective concentration for inhibition of interleukin-6 in human A549 lung carcinoma cell line using 59% radiolabeled Dexamethasone; format: functional, cell-based
[22] = species on record: Mus musculus; test: Effective concentration required for inhibition of interleukin-6 in mouse thioglycolate-elicited peritoneal exudate cell line using 77% radiolabeled Dexamethasone; format: functional

Chain of Estrogen receptor beta (Q92731 whole entry): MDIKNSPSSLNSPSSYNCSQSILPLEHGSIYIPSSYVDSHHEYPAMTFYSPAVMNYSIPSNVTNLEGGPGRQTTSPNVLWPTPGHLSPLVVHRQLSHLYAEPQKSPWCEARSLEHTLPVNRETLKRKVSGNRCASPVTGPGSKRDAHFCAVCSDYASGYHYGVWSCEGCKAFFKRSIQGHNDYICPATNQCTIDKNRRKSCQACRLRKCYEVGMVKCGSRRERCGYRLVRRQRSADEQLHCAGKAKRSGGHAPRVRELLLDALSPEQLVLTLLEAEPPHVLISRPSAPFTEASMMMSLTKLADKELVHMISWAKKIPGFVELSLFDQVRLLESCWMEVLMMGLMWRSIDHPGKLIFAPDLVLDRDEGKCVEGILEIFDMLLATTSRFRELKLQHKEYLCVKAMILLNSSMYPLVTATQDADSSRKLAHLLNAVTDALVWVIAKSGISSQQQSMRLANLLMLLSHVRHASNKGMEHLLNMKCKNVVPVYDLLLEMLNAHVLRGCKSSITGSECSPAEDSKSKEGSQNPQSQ

SMILES: COC[C@H]1OC2(CCC3=Cc4c(cnn4-c4ccc(F)cc4)C[C@@]32C)O[C@@H]1COC
EC50 [1]: 8.3 nM
EC50 [2]: 10 nM
IC50 [3]: 26 nM

SMILES: C[C@H]1CCO[C@]2(CCC3=Cc4c(cnn4-c4ccc(F)cc4)C[C@@]32C)O1
EC50 [4]: 0.53 nM
IC50 [3]: 21 nM

SMILES: C[C@@H]1CC(C)(C)O[C@]2(CCC3=Cc4c(cnn4-c4ccc(F)cc4)C[C@@]32C)O1
EC50 [7]: 12 nM
IC50 [3]: 2.2 nM

SMILES: C=C[C@H]1OC2(CCC3=Cc4c(cnn4-c4ccc(F)cc4)C[C@@]32C)O[C@@H]1C=C
IC50 [8]: > 10000 nM
EC50 [9]: 61 nM
Inhibition [10]: 96.8%
IC50 [11]: 8 nM
half-life [12]: 2.3 h
IC50 [13]: > 10000 nM
IC50 [14]: > 1000 nM
Vd [15]: 15.3 L/kg
EC50 [16]: 61 nM
bioavailability [17]: 14.3%
IC50 [18]: > 10000 nM
EC50 [19]: 2.6 nM
clearance [20]: 114 mL/min/kg
IC50 [3]: 8 nM

More lines, in order of falling IC50 [3], values ahead:

EC50 [5]: 168 nM
EC50 [6]: 9 nM
IC50 [3]: 5.8 nM
SMILES: C=C[C@@H]1CO[C@]2(CCC3=Cc4c(cnn4-c4ccc(F)cc4)C[C@@]32C)O1

EC50 [21]: 25 nM
EC50 [22]: 18 nM
IC50 [3]: 2.1 nM
SMILES: C[C@@H]1CC(C)(C)O[C@@]2(CCC3=Cc4c(cnn4-c4ccc(F)cc4)C[C@@]32C)O1
